Measurements taken from ChEMBL document CHEMBL5523684, “Development of a tetrahydroindazolone-based HDAC6 inhibitor with in-vivo anti-arthritic activity” (Bioorg Med Chem, 2024).

How the values were obtained:
[1] = biological target: T1, Protein deacetylase HDAC6 (Homo sapiens, UniProt Q9UBN7); test: Inhibition of N-terminal GST-tagged human recombinant HDAC6 expressed in Spodoptera frugiperda incubated for 60 mins by fluorescence based analysis
T1 sequence (Q9UBN7 whole entry): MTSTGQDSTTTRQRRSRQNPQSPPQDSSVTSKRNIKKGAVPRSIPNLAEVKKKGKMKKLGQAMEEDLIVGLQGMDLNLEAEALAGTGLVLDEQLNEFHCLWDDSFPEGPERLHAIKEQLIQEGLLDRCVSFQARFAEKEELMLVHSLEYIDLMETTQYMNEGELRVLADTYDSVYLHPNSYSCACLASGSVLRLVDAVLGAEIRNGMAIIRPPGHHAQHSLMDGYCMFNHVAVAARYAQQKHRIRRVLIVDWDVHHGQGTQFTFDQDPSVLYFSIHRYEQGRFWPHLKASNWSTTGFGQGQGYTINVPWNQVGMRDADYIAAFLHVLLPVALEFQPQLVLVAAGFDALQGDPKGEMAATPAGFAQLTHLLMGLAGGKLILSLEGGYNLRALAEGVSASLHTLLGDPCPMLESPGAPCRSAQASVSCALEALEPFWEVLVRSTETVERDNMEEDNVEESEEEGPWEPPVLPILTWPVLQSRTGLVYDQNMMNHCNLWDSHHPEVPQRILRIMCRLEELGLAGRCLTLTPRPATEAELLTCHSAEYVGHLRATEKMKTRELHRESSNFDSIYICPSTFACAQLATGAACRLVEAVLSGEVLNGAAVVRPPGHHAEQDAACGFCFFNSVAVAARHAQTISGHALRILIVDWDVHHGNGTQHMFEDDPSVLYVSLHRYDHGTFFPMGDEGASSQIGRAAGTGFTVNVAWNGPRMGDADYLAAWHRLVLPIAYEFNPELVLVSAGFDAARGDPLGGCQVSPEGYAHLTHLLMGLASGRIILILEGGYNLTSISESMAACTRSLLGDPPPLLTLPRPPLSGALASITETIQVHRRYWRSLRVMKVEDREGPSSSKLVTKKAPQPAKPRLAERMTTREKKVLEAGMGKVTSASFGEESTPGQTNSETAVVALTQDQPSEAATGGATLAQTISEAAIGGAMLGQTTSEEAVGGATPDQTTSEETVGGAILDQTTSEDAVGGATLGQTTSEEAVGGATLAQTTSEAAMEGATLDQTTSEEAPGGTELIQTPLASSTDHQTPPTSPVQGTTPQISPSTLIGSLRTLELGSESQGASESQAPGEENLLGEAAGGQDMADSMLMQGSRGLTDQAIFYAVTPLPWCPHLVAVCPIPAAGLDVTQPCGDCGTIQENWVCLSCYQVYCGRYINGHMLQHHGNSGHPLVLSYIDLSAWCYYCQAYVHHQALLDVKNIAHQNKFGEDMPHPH

Histone deacetylase 1 [2] = biological target: T2, Histone deacetylase 1 (Homo sapiens, UniProt Q13547); test: Inhibition of his-tagged human recombinant HDAC1 using fluor de lys-SIRT1 as substrate incubated for 60 mins by fluorescence based analysis
T2 sequence (Q13547 whole entry): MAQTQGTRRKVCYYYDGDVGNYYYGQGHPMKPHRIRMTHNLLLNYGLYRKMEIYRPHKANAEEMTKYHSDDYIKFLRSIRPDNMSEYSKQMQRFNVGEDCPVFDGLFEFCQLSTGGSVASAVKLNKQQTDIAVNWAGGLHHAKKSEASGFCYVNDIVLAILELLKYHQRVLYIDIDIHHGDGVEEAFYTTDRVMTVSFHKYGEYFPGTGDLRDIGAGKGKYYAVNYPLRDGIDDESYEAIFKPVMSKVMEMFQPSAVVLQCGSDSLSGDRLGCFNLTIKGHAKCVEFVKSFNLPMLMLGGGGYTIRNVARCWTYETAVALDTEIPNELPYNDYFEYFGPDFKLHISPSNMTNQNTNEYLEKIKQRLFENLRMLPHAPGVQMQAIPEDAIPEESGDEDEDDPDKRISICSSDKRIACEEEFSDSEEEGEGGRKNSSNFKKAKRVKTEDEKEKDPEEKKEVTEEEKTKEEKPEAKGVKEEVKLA

Homo sapiens = species on record: Homo sapiens; test: Selectivity index, ratio of IC50 for inhibition of his-tagged human recombinant HDAC1 using fluor de lys-SIRT1 as substrate to IC50 for inhibition of N-terminal GST-tagged human recombinant HDAC6 expressed in Spodoptera frugiperda
Histone deacetylase 1 [3] = biological target: T2, Histone deacetylase 1; test: Inhibition of HDAC1 (unknown origin)
[4] = biological target: T3, Polyamine deacetylase HDAC10 (Homo sapiens, UniProt Q969S8); test: Inhibition of human recombinant HDAC10 using fluorescent peptide p53 (379 to 382 residues) RHKK(Ac) as substrate by fluorescence based analysis
T3 sequence (Q969S8 whole entry): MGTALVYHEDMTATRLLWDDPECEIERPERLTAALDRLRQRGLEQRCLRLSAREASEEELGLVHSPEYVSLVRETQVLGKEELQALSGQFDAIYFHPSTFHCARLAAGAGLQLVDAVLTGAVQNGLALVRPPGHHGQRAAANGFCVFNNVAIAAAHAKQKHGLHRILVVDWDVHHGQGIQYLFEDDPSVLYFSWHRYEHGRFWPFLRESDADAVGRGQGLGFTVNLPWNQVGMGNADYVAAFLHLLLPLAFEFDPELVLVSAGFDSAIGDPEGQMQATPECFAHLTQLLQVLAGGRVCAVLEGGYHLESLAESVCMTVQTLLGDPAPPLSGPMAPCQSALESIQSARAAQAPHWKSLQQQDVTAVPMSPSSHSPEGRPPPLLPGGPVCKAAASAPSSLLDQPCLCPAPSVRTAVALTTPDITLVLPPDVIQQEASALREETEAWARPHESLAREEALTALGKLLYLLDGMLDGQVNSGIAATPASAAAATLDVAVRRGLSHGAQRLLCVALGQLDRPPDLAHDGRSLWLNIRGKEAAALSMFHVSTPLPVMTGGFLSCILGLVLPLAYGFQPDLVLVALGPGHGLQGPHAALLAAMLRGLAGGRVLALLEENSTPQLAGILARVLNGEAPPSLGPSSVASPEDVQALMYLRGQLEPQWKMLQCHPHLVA

Histone deacetylase 2 = Histone deacetylase 2 (Homo sapiens, UniProt Q92769); test: Inhibition of human recombinant HDAC2 using fluorescent peptide p53 (379 to 382 residues) RHKK(Ac) as substrate by fluorescence based analysis
Sequence of Histone deacetylase 2 (Q92769 whole entry, the tested form may be a part): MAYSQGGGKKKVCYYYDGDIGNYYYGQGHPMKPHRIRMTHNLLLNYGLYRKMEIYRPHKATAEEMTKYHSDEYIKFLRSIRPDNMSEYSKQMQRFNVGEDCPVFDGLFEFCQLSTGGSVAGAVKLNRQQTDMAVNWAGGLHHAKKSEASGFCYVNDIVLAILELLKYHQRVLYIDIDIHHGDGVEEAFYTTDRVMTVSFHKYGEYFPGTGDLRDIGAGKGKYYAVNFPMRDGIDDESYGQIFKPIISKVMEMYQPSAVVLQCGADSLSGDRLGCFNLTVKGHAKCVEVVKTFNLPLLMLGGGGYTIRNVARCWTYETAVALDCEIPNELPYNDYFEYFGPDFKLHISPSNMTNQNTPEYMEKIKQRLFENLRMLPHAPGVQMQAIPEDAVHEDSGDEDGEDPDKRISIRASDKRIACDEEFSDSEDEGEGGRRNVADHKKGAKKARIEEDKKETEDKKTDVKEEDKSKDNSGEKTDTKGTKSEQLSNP

Histone deacetylase 3 = Histone deacetylase 3 (Homo sapiens, UniProt O15379)
Sequence of Histone deacetylase 3 (O15379 whole entry, the tested form may be a part): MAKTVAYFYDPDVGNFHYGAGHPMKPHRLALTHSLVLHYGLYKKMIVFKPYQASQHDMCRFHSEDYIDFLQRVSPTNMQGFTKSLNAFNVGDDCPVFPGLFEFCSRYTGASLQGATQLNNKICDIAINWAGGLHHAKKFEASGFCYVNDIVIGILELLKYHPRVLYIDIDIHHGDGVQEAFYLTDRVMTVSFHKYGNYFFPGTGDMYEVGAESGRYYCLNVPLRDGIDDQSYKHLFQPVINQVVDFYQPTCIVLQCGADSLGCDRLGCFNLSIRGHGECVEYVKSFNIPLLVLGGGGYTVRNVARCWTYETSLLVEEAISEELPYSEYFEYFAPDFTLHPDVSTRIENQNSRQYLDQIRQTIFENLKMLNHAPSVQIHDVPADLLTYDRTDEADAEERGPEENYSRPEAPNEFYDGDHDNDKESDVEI

[5] = biological target: T1, Protein deacetylase HDAC6; test: Inhibition of human recombinant HDAC6 using fluorescent peptide p53 (379 to 382 residues) RHKK(Ac) as substrate by fluorescence based analysis

In the case of Cc1cn(Cc2ccc(C(=O)NO)cc2)c2c1C(=O)CCC2, the IC50 [1] is reported as 0.002 µM, the IC50 (Histone deacetylase 1 [2]) is reported as 1.13 µM and the Ratio IC50 (Homo sapiens) is reported as 543.
Cc1nccn1CC1CCc2c(c3cc(F)ccc3n2Cc2ccc(C(=O)NO)cc2)C1=O (stereo not drawn) gave an IC50 [1] of 0.009 µM and a Ratio IC50 (Homo sapiens) of 570.
Compound Cc1ccc(N2CCN(CC3CCc4c(c5ccccc5n4Cc4ccc(C(=O)NO)cc4)C3=O)CC2)cc1C (stereo not drawn) has an IC50 [1] of 0.04 µM and a Ratio IC50 (Homo sapiens) of 203.
For CC(C)(C)OC(=O)N1CCN(CC2CCc3c(c4ccccc4n3Cc3ccc(C(=O)NO)cc3)C2=O)CC1 (stereo not drawn), the Ratio IC50 (Homo sapiens) was 327.
For O=C(NO)c1ccc(Cn2c3c(c4cc(F)ccc42)C(=O)CCC3)cc1, the Ratio IC50 (Homo sapiens) was 328.
O=C(NO)c1ccc(Cn2c3c(c4ccccc42)CCCC3)cc1 was tested, and the IC50 (Histone deacetylase 1 [3]) was 10.9 µM.
CC(C)(C)OC(=O)N1CCN(CC2CCc3c(c4cc(F)ccc4n3Cc3ccc(C(=O)NO)cc3)C2=O)CC1 (stereo not drawn) gave a Ratio IC50 (Homo sapiens) of 311.
For CC1CN(CC2CCc3c(c4ccccc4n3Cc3ccc(C(=O)NO)cc3)C2=O)CC(C)O1 (stereo not drawn), the IC50 [1] was 0.011 µM, the IC50 (Histone deacetylase 1 [2]) was 0.87 µM and the Ratio IC50 (Homo sapiens) was 79.1.
With CN1CCN(CC2CCc3c(c4ccccc4n3Cc3ccc(C(=O)NO)cc3)C2=O)CC1 (stereo not drawn) the IC50 [1] was 0.012 µM and the Ratio IC50 (Homo sapiens) was 345.
For CC1(C)Cc2c(c3ccccc3n2Cc2ccc(C(=O)NO)cc2)C(=O)C1CN1CCOCC1 (stereo not drawn), the Ratio IC50 (Homo sapiens) was 153.
Cc1nn(Cc2ccc(C(=O)NO)cc2)c2c1C(=O)CC(C)(C)C2 gave an IC50 [1] of 0.012 µM and a Ratio IC50 (Homo sapiens) of 135.
Compound CC1(C)CC(=O)c2c(n(Cc3ccc(C(=O)NO)cc3)c3ccccc23)C1 has an IC50 [1] of 0.012 µM, an IC50 (Histone deacetylase 1 [2]) of 4.14 µM and a Ratio IC50 (Homo sapiens) of 345.
O=C(NO)c1ccc(Cn2c3c(c4ccccc42)C(=O)C(CN2CCN(c4ccc(F)cc4)CC2)CC3)cc1 (stereo not drawn) was tested, and the IC50 [1] was 0.008 µM and the Ratio IC50 (Homo sapiens) was 661.
CCN1CCN(CC2CCc3c(c4ccccc4n3Cc3ccc(C(=O)NO)cc3)C2=O)CC1 (stereo not drawn) was tested, and the IC50 [1] was 0.014 µM and the Ratio IC50 (Homo sapiens) was 329.
In the case of CCN1CCN(CC2CCc3c(c4cc(F)ccc4n3Cc3ccc(C(=O)NO)cc3)C2=O)CC1 (stereo not drawn), the IC50 [1] is reported as 0.011 µM and the Ratio IC50 (Homo sapiens) is reported as 202.
With CC1(C)CC(=O)c2c(n(Cc3ccc(C(=O)NO)cc3)c3ccc(Br)cc23)C1 the Ratio IC50 (Homo sapiens) was 42.4.
CN1CCN(CC2C(=O)c3c(n(Cc4ccc(C(=O)NO)cc4)c4ccc(F)cc34)CC2(C)C)CC1 (stereo not drawn) showed an IC50 [1] of 0.002 µM and a Ratio IC50 (Homo sapiens) of 182.
Compound CC1(C)Cc2c(c3cc(F)ccc3n2Cc2ccc(C(=O)NO)cc2)C(=O)C1CN1CCOCC1 (stereo not drawn) has a Ratio IC50 (Homo sapiens) of 41.4.
O=C(NO)c1ccc(Cn2c3c(c4cc(F)ccc42)C(=O)C(CN2CCOCC2)CC3)cc1 (stereo not drawn) showed an IC50 [1] of 0.005 µM and a Ratio IC50 (Homo sapiens) of 828.
In the case of Cc1cn(Cc2ccc(C(=O)NO)cc2)c2c1C(=O)CC(C)(C)C2, the IC50 [1] is reported as 0.008 µM and the Ratio IC50 (Homo sapiens) is reported as 380.
CC(C)N1CCN(CC2CCc3c(c4cc(F)ccc4n3Cc3ccc(C(=O)NO)cc3)C2=O)CC1 (stereo not drawn) was tested, and the Ratio IC50 (Homo sapiens) was 50.2.
CN1CCN(CC2CCc3c(c4cc(F)ccc4n3Cc3ccc(C(=O)NO)cc3)C2=O)CC1 (stereo not drawn) gave an IC50 [4] of over 20 µM, an IC50 (Histone deacetylase 2) of over 20 µM and an IC50 [1] of 0.005 µM. The Ratio IC50 (Homo sapiens) was 530, the IC50 (Histone deacetylase 3) was over 20 µM and the IC50 [5] was 0.004 µM.
Cc1c2c(n(Cc3ccc(C(=O)NO)cc3)c1C)CCCC2=O gave an IC50 [1] of 0.004 µM and a Ratio IC50 (Homo sapiens) of 705.
Cc1nccn1CC1C(=O)c2c(n(Cc3ccc(C(=O)NO)cc3)c3ccccc23)CC1(C)C (stereo not drawn) was tested, and the IC50 [1] was 0.035 µM and the Ratio IC50 (Homo sapiens) was 166.
O=C(NO)c1ccc(Cn2c3c(c4ccccc42)C(=O)C(CN2CCCCC2)CC3)cc1 (stereo not drawn) showed an IC50 [1] of 0.012 µM and a Ratio IC50 (Homo sapiens) of 284.
Work on Cc1c2c(n(Cc3ccc(C(=O)NO)cc3)c1C)CC(C)(C)CC2=O yielded an IC50 [1] of 0.011 µM and a Ratio IC50 (Homo sapiens) of 464.
Compound CCCCN1CCN(CC2CCc3c(c4cc(F)ccc4n3Cc3ccc(C(=O)NO)cc3)C2=O)CC1 (stereo not drawn) has an IC50 [1] of 0.006 µM and a Ratio IC50 (Homo sapiens) of 373.
